SMILES strings stand for the structures.

The assay deals with T1, Deoxyhypusine hydroxylase (DOHH) (Plasmodium vivax, UniProt A5JZ19).
T1 construct: full-length ORF of 346 amino acids, histidine-tagged, expressed in E. coli BL21(DE3) (pET-28a)
T1 sequence (A5JZ19 1-346): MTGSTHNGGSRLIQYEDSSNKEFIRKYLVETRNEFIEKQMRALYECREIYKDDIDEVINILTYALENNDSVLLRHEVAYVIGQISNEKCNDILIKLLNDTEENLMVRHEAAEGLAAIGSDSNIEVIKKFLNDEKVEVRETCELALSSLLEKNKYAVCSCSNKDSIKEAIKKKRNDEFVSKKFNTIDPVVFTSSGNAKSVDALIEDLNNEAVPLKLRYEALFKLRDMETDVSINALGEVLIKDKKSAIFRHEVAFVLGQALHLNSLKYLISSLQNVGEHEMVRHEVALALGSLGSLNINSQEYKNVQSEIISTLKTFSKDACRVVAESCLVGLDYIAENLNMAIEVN
The experiment in a line: recombinant DOHH activity assay with eIF-5A(Dhp) substrate; radioactive filter assay and GC/MS, dose-response. The format is biochemical.

On to `CC(c1cc2ccccc2s1)N(O)C(N)=O` (racemic) [zileuton, (RS)-1-(1-Benzothiophen-2-ylethyl)-1-hydroxyurea], for which the IC50 is given as 12,5 nmol.

(Values after article PMC3591309, “Deoxyhypusine Hydroxylase from Plasmodium vivax, the Neglected Human Malaria Parasite: Molecular Cloning, Expression and Specific Inhibition by the 5-LOX Inhibitor Zileuton” (PLoS ONE, 2013).)
